# According to patent publication US11241440B2, “Dihydrooxadiazine compounds for treating infections and cancer” (VALORALIA I MÁS D, SL, priority 2016, dated 2022):
# Columns and labels:
# [1] = tested on: A. fumigatus; conditions: A. fumigatus AFu-001; cited from earlier work; also: key: I = intermediate activity; S = susceptibility; R = Resistance
# [2] = tested on: A. flavus; conditions: A. flavus AF-001; cited from earlier work; also: key: I = intermediate activity; S = susceptibility; R = Resistance
# [3] = tested on: C. parapsilosis; conditions: C. parapsilosis CP-007; cited from earlier work; also: key: I = intermediate activity; S = susceptibility; R = Resistance
# [4] = tested on: S. prolificans; conditions: S. prolificans SP-003; cited from earlier work; also: key: I = intermediate activity; S = susceptibility; R = Resistance
# [5] = tested on: A. terreus; conditions: A. terreus ATe-001; cited from earlier work; also: key: I = intermediate activity; S = susceptibility; R = Resistance
# [6] = tested on: Aspergillus fumigatus; assay: EUCAST broth dilution antifungal susceptibility test (MIC); assay type: cell-based; conditions: 100% inhibition, 24 hours at 35° C., dilution range 64 to 0.12 mg/l
# Method: (§1) Filamentous fungi and yeasts strains, from clinical origin, were supplied by Microbiology Service from The Princess Hospital, Madrid. They are detailed in Table III. Filamentous fungi and yeast cells suspensions in distilled water was prepared from a culture of 24-48 h, depending on species, in Sabouraud agar. Each suspension was adjusted to a fixed size inoculum of 1-5×10^8 CFU/ml with a spectrophotometer (Ferraro, M J National Committee for Clinical Laboratory Standards. 2000). Antifungal susceptibility tests were developed following the standardized methodology detailed by the European Committee on Antimicrobial Susceptibility Testing (EUCAST) documents 7.2 (method for the determination of broth dilution minimum inhibitory concentrations of antifungal agents for yeasts EDef 7.2) and 9.2 (Method for the determination of broth dilution minimum inhibitory concentrations of antifungal agents for conidia forming foulds). The compound was dissolved in DMSO and diluted with RPMI plates with 2% glucose to pH 7 with MOPS buffer. […] Plates were inoculated with a yeast suspension or filamentous fungal spores (1-5×10^5 cls/ml). The results were evaluated after 24 hours incubation at 35° C. and absorbance reading at 530 nm.
# [7] = tested on: Aspergillus terreus; assay: as above; assay type: cell-based; conditions: 100% inhibition, 24 hours at 35° C., dilution range 64 to 0.12 mg/l
# Method: as §1
# [8] = tested on: Scedosporium prolificans; assay: as above; assay type: cell-based; conditions: 100% inhibition, 24 hours at 35° C., dilution range 64 to 0.12 mg/l
# Method: as §1
# [9] = tested on: Aspergillus flavus; assay: as above; assay type: cell-based; conditions: 100% inhibition, 24 hours at 35° C., dilution range 64 to 0.12 mg/l
# Method: as §1
# [10] = tested on: equine herpes virus type 1 (EHV-1); assay: Viral titer reduction; assay type: cell-based; conditions: 10 μg/ml
SMILES,Characteristics of the strains: susceptibility class [1],Characteristics of the strains: susceptibility class [2],Characteristics of the strains: susceptibility class [3],Characteristics of the strains: susceptibility class [4],Characteristics of the strains: susceptibility class [5],MIC (minimum inhibitory concentration) [6],MIC (minimum inhibitory concentration) [7],MIC (minimum inhibitory concentration) [8],MIC (minimum inhibitory concentration) [9],reduction of the titer (inhibition) [10] [logarithms]
C[C@@H]1[C@H](O)[C@@H](C)/C=C/C=C/C=C/C=C/C=C/C=C/C=C/[C@H](O[C@@H]2O[C@H](C)[C@@H](O)[C@H](N)[C@@H]2O)C[C@@H]2O[C@](O)(C[C@@H](O)C[C@@H](O)[C@H](O)CC[C@@H](O)C[C@@H](O)CC(=O)O[C@H]1C)C[C@H](O)[C@H]2C(=O)O [Amphotericin B],S,I,I,R,I,0.5,2,>16,1,–
C[C@@H](c1ncncc1F)[C@](O)(Cn1cncn1)c1ccc(F)cc1F [Voriconazole],–,–,–,R,–,0.5,0.5,>8,1,–
"Nc1nc(O)c2ncn(COC(CO)CO)c2n1 [GCV, ganciclovir]",–,–,–,–,–,–,–,–,–,1.8
